{"source": "patent US8569495B2", "about": "“Anthelmintic agents and their use” (Intervet International B.V., priority 2007, dated 2013)", "key": {"[1]": {"tested_on": "Haemonchus contortus (L4), isolate resistant to benzimidazoles and ivermectin and anthelmintic-sensitive isolate", "test": "In vitro resistance-breaking activity against Haemonchus contortus L4, resistant versus sensitive isolate (MEC)", "conditions": "isolate resistant to benzimidazoles and ivermectin vs sensitive isolate", "description": "Anthelmintic resistance-breaking effects of compounds of this invention were tested in vitro using larval stage 4 (“L4”) of the parasitic nematode species Haemonchus contortus (Barber's pole worm in ruminants). One isolate of Haemonchus contortus with a resistance to benzimidazoles and ivermectin was tested in comparison to the anthelmintic-sensitive isolate of Haemonchus contortus. When conducting these experiments, various concentrations of the compounds were incubated in 96-well microtiter plates. Parasites were then distributed at 20 larvae per well. The anthelmintic effects were classified by microscopic examination. The microscopic examination included assessing mortality, damage, motility, progression of development, and neutral red uptake by the larvae in comparison to a DMSO-control and standard anthelmintics. The anthelmintic effects were defined by the minimum effective concentration (“MEC”)."}, "Haemonchus contortus [2]": {"tested_on": "Haemonchus contortus", "test": "Efficacy against Haemonchus contortus in jirds", "format": "in vivo, jirds (Meriones unguiculatus)", "conditions": "single treatment 10 days after infection, necropsy 3 days after treatment", "description": "Anthelmintic effects of compounds of this invention were tested in vivo using Haemonchus contuortus in jirds (Meriones unguiculatus). The jirds were orally infected with approximately 750-3,000 third-stage larvae of Haemonchus contortus. Ten days after infection, the jirds in the treatment groups were treated once orally or subcutaneously at a dose of 2, 10, and/or 50 mg per kg bodyweight. Three days after treatment, the jirds were necropsied, and the larvae burden in the stomach was determined. The efficacy was defined as the reduction of the mean larvae count in the jirds of the treatment groups in comparison to the infected jirds in the untreated negative control group. All the compounds of this invention tested using this protocol reduced the Haemonchus contortus count in both the oral and subcutaneous experiments."}, "Haemonchus contortus [3]": {"tested_on": "Haemonchus contortus", "test": "Efficacy against Haemonchus contortus in sheep", "format": "in vivo", "conditions": "single treatment 35 days after infection, necropsy 7 days after treatment", "description": "Anthelmintic effects of compounds of this invention were tested in vivo using Haemonchus contortus in sheep. The sheep were orally infected with approximately 5,000 third-stage larvae of Haemonchus contortus. Thirty-five days after infection, the sheep in the treatment groups were treated once orally or subcutaneously at a dose of 2, 5, 10, and/or 50 mg per kg bodyweight. Seven days after treatment, the sheep were necropsied, and the worm burden in the abomasum was determined. The efficacy was defined as the reduction of the mean worm count in the infected sheep of the treatment groups in comparison to the infected sheep in the untreated negative control group."}, "Haemonchus contortus [4]": {"tested_on": "Haemonchus contortus", "test": "Efficacy against Haemonchus contortus in cattle", "format": "in vivo", "conditions": "10 mg/kg, oral, single treatment 32 days after infection, necropsy 7 days after treatment", "description": "(§1) Anthelmintic effects of compounds of this invention were tested in vivo using Haemonchus contortus and Trichostrongylus colubriformis in cattle. The cattle were orally infected with approximately 10,000 third-stage larvae of Haemonchus contortus and approximately 30,000 third-stage larvae of Trichostrongylus colubriformis. Thirty-two days after infection, the cattle in the treatment group were treated once orally with the compound of Example 11 at a dose of 10 mg/kg bodyweight. Seven days after treatment, the cattle were necropsied, and the worm burden in the abomasum and the small intestine was determined. The efficacy was defined as the reduction of the mean worm count in the infected cattle of the treatment group in comparison to the infected cattle in the untreated negative control group."}, "[5]": {"tested_on": "Trichostrongylus colubriformis", "test": "Efficacy against Trichostrongylus colubriformis in cattle", "format": "in vivo", "conditions": "10 mg/kg, oral, single treatment 32 days after infection, necropsy 7 days after treatment", "description": "as §1"}, "[6]": {"tested_on": "Ascaridia galli (L3) and Oesophagostomum dentatum (L3 and L4)", "test": "In vitro anthelmintic activity against larval stages of Ascaridia galli and Oesophagostomum dentatum (MEC)", "conditions": "A. galli L3, O. dentatum L3 and L4; for minimal effective concentration: Ascaridia galli, 20 larvae per well, microscopic examination"}, "[7]": {"conditions": "in vitro, read-out: minimum effective concentration (MEC) against one or more of the tested nematodes"}, "[8]": {"conditions": "in vitro, read-out: minimum effective concentration (MEC) against two or more of the tested nematodes"}}, "note": "Like-named read-outs stand apart in the source and are kept apart here.", "data": [{"smiles": "O=C(CO[C@H]1CC[C@H](Nc2ccc([N+](=O)[O-])c(C(F)(F)F)c2)CC1)N1CCN(c2ccc(C(F)(F)F)cc2)CC1", "note": "[Example 11, 2-[trans-4-(4-nitro-3-trifluoromethyl-phenylamino)-cyclohexyloxy]-1-[4-(4-trifluoromethyl-phenyl)-piperazin-1-yl]-ethanone]", "values": [{"measurement": "activity against the resistant isolate compared with the sensitive isolate of Haemonchus contortus", "setting": "[1]", "result": "same activity"}, {"measurement": "% Reduction in H. contortus count", "setting": "Haemonchus contortus [2]; 2 mg/kg, oral", "result": 84, "unit": "%"}, {"measurement": "% Reduction in H. contortus count", "setting": "Haemonchus contortus [2]; 2 mg/kg, subcutaneous", "result": 69, "unit": "%"}, {"measurement": "% Reduction in H. contortus count", "setting": "Haemonchus contortus [2]; 50 mg/kg, oral", "result": 98, "unit": "%"}, {"measurement": "% Reduction in H. contortus count", "setting": "Haemonchus contortus [2]; 50 mg/kg, subcutaneous", "result": 99, "unit": "%"}, {"measurement": "% Reduction in H. contortus count", "setting": "Haemonchus contortus [3]; 2 mg/kg, oral", "result": 0, "unit": "%"}, {"measurement": "% Reduction in H. contortus count", "setting": "Haemonchus contortus [3]; 5 mg/kg, oral", "result": 95, "unit": "%"}, {"measurement": "% Reduction in H. contortus count", "setting": "Haemonchus contortus [3]; 10 mg/kg, oral", "result": 100, "unit": "%"}, {"measurement": "Efficacy against H. contortus (reduction of the mean worm count)", "setting": "Haemonchus contortus [4]", "result": 98, "unit": "%"}, {"measurement": "Efficacy against T. colubriformis (reduction of the mean worm count)", "setting": "[5]", "result": 99, "unit": "%"}]}, {"smiles": "CN(c1ccc([N+](=O)[O-])c(C(F)(F)F)c1)[C@H]1CC[C@H](OCC(=O)N2CCN(c3ccc(C(F)(F)F)cc3)CC2)CC1", "note": "[Example 12, 2-{trans-4-[methyl(4-nitro-3-trifluoromethyl-phenyl)-amino]-cyclohexyloxy}-1-[4-(4-trifluoromethyl-phenyl)-piperazin-1-yl]-ethanone]", "values": [{"measurement": "% Reduction in H. contortus count", "setting": "Haemonchus contortus [3]; 10 mg/kg, oral", "result": 53, "unit": "%"}, {"measurement": "% Reduction in H. contortus count", "setting": "Haemonchus contortus [3]; 10 mg/kg, subcutaneous", "result": 0, "unit": "%"}]}, {"smiles": "CN(CC1CCN(c2ccc(C(F)(F)F)cc2)CC1)C(=O)[C@H]1CC[C@H](Nc2ccc([N+](=O)[O-])c(C(F)(F)F)c2)CC1", "note": "[Example 57, trans-N-methyl-4-(4-nitro-3-(trifluoromethyl)phenylamino)-N-((1-(4-(trifluoromethyl)phenyl)piperidin-4-yl)methyl)cyclohexanecarboxamide]", "values": [{"measurement": "activity against the resistant isolate compared with the sensitive isolate of Haemonchus contortus", "setting": "[1]", "result": "same activity"}, {"measurement": "% Reduction in H. contortus count", "setting": "Haemonchus contortus [3]; 10 mg/kg, oral", "result": 83, "unit": "%"}, {"measurement": "% Reduction in H. contortus count", "setting": "Haemonchus contortus [3]; 10 mg/kg, subcutaneous", "result": 0, "unit": "%"}]}, {"smiles": "Cc1ccc(N2CCN(C(=S)COC3CCC(Nc4ccc([N+](=O)[O-])c(C(F)(F)F)c4)CC3)CC2)cc1", "note": "(centres unmarked) [Example 222]", "values": [{"measurement": "minimal effective concentration", "setting": "[6]; [7]", "result": "< 1", "unit": "µM"}]}, {"smiles": "CCC(OC1CCC(Nc2ccc([N+](=O)[O-])c(C(F)(F)F)c2)CC1)C(=O)N1CCN(c2ccc(C(F)(F)F)cc2)CC1", "note": "(centres unmarked) [Example 226]", "values": [{"measurement": "minimal effective concentration", "setting": "[6]; read-out: minimum effective concentration (MEC) against two or more of the tested nematodes, in vitro", "result": "< 1", "unit": "µM"}]}, {"smiles": "COc1cc(N[C@H]2CC[C@H](OCC(=O)N3CCN(c4ccc(C(F)(F)F)cc4)CC3)CC2)ccc1[N+](=O)[O-]", "note": "[Example 234]", "values": [{"measurement": "minimal effective concentration", "setting": "[6]; [7]", "result": "< 1", "unit": "µM"}]}, {"smiles": "O=C(CO[C@H]1CC[C@H](Nc2ccc([N+](=O)[O-])cc2C(F)(F)F)CC1)N1CCN(c2ccccc2)CC1", "note": "[Example 240]", "values": [{"measurement": "activity against the tested nematodes", "setting": "[6]; in vitro", "result": "no detectable activity"}]}, {"smiles": "Cc1cc(N[C@H]2CC[C@H](OCC(=O)N3CCN(c4ccc(Cl)cc4)CC3)CC2)ccc1[N+](=O)[O-]", "note": "[Example 241]", "values": [{"measurement": "minimal effective concentration", "setting": "[6]; [7]", "result": "< 1", "unit": "µM"}]}, {"smiles": "N#Cc1cc([N+](=O)[O-])ccc1N[C@H]1CC[C@H](OCC(=O)N2CCN(c3ccc(Cl)cc3)CC2)CC1", "note": "[Example 245]", "values": [{"measurement": "minimal effective concentration", "setting": "[6]; [7]", "result": "< 7", "unit": "µM"}]}, {"smiles": "CC(C)(C)c1ccc(N2CCN(C(=O)CO[C@H]3CC[C@H](Nc4ccc([N+](=O)[O-])c(C#N)c4)CC3)CC2)cc1", "note": "[Example 248]", "values": [{"measurement": "minimal effective concentration", "setting": "[6]; [8]", "result": "< 1", "unit": "µM"}]}, {"smiles": "COc1cc(N[C@H]2CC[C@H](OCC(=O)N3CCN(c4ccc(C(C)(C)C)cc4)CC3)CC2)ccc1[N+](=O)[O-]", "note": "[Example 249]", "values": [{"measurement": "minimal effective concentration", "setting": "[6]; [8]", "result": "< 1", "unit": "µM"}]}, {"smiles": "CC(C)(C)c1ccc(N2CCN(C(=O)COC3C=C[C@@H](Nc4ccc([N+](=O)[O-])c(C(F)(F)F)c4)C3)CC2)cc1", "note": "(some centres unmarked) [Example 259]", "values": [{"measurement": "minimal effective concentration", "setting": "[6]; [8]", "result": "< 1", "unit": "µM"}]}, {"smiles": "CC(C)(C)c1ccc(N2CCN(C(=O)COC3CCC(Oc4ccc([N+](=O)[O-])c(C(F)(F)F)c4)CC3)CC2)cc1", "note": "(centres unmarked) [Example 260]", "values": [{"measurement": "minimal effective concentration", "setting": "[6]; [8]", "result": "< 1", "unit": "µM"}]}, {"smiles": "O=C(COC1CCC(Nc2ccc([N+](=O)[O-])c(C(F)(F)F)c2)CC1)N1CC2CN(c3ccc(Cl)cc3)CC2C1", "note": "(centres unmarked) [Example 262]", "values": [{"measurement": "minimal effective concentration", "setting": "[6]; [8]", "result": "< 1", "unit": "µM"}]}]}
